Measurements: patent publication US10597388B2, “Pyridazinone herbicides” (FMC CORPORATION, priority 2014, dated 2020)

Key:
Assay in all cases: Test D controlled growth environment herbicide test, pre- and postemergence
Type in all cases: in vivo
[1] = test system: barley, spring (spring barley, Hordeum vulgare)
How it was run: (§1)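 Rating is visual, 0–100 scale (100 = complete control), made against untreated plants 14–21 d after treatment in controlled growth conditions. Postemergence sprays went onto 1- to 4-leaf plants in peat medium; preemergence sprays onto silt loam after sowing; formulation included a surfactant.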

[2] = test system: blackgrass (Alopecurus myosuroides)
How it was run: as §1

[3] = test system: bluegrass (annual bluegrass, Poa annua)
How it was run: as §1

[4] = test system: buckwheat, wild (wild buckwheat, Polygonum convolvulus)
How it was run: as §1

[5] = test system: canarygrass (Phalaris minor)
How it was run: as §1

[6] = test system: chamomile (scentless chamomile, Matricaria inodora)
How it was run: as §1

[7] = test system: field violet (Viola arvensis)
How it was run: as §1

[8] = test system: foxtail, green (green foxtail, Setaria viridis)
How it was run: as §1

[9] = test system: oat, wild (wild oat, Avena fatua)
How it was run: as §1

[10] = test system: pigweed (Amaranthus retroflexus)
How it was run: as §1

[11] = test system: radish, wild (wild radish, Raphanus raphanistrum)
How it was run: as §1

[12] = test system: ryegrass, Italian (Italian ryegrass, Lolium multiflorum)
How it was run: as §1

[13] = test system: wheat, spring (spring wheat, Triticum aestivum)
How it was run: as §1

[14] = Postemergence, 31 g ai/ha, scale 0 to 100 (0 no effect, 100 complete control)
[15] = Postemergence, 125 g ai/ha, visual rating on scale 0 (no effect) to 100 (complete control), 14 to 21 d
[16] = Postemergence, 250 g ai/ha, scale 0 to 100 (0 no effect, 100 complete control)
[17] = Preemergence, 62 g ai/ha, scale 0 to 100 (0 no effect, 100 complete control)
[18] = Preemergence, 125 g ai/ha, scale 0 to 100 (0 no effect, 100 complete control)
[19] = Preemergence, 250 g ai/ha, scale 0 to 100 (0 no effect, 100 complete control)
[20] = postemergence, 62 g ai/ha, scale 0 to 100, 0 no effect, 100 complete control

SMILES: CC(=O)Oc1c(C)nn(C)c(=O)c1-c1c(C)sc2ccc(C)cc12 [Compound 25]
- Plant response rating, Barley, Spring [1, 14]: 0
- Plant response rating, Barley, Spring [1, 15]: 0
- Plant response rating, Barley, Spring [1, 16]: 10
- Plant response rating (scale of 0 to 100), Barley, Spring ([1]; Preemergence, 31 g ai/ha): 0
- Plant response rating, Barley, Spring [1, 17]: 0
- Plant response rating, Barley, Spring [1, 18]: 0
- Barley, Spring plant response rating [1, 19]: 0
- Plant response rating, Barley, Spring [1, 20]: 0
- Blackgrass plant response rating [2, 14]: 65
- Plant response rating, Blackgrass [2, 15]: 80
- Plant response rating, Blackgrass [2, 16]: 80
- Plant response rating (scale of 0 to 100), Blackgrass ([2]; Preemergence, 31 g ai/ha): 85
- Plant response rating, Blackgrass [2, 17]: 90
- Plant response rating, Blackgrass [2, 18]: 90
- Blackgrass plant response rating [2, 19]: 95
- Plant response rating, Blackgrass [2, 20]: 75
- Bluegrass plant response rating [3, 14]: 10
- Plant response rating, Bluegrass [3, 15]: 30
- Plant response rating, Bluegrass [3, 16]: 40
- Plant response rating (scale of 0 to 100), Bluegrass ([3]; Preemergence, 31 g ai/ha): 25
- Plant response rating, Bluegrass [3, 17]: 35
- Plant response rating, Bluegrass [3, 18]: 40
- Bluegrass plant response rating [3, 19]: 75
- Plant response rating, Bluegrass [3, 20]: 20
- Buckwheat, Wild plant response rating [4, 14]: 80
- Plant response rating, Buckwheat, Wild [4, 15]: 100
- Plant response rating, Buckwheat, Wild [4, 16]: 100
- Plant response rating (scale of 0 to 100), Buckwheat, Wild ([4]; Preemergence, 31 g ai/ha): 0
- Plant response rating, Buckwheat, Wild [4, 17]: 0
- Plant response rating, Buckwheat, Wild [4, 18]: 20
- Plant response rating, Buckwheat, Wild [4, 19]: 25
- Plant response rating, Buckwheat, Wild [4, 20]: 100
- Canarygrass plant response rating [5, 14]: 70
- Plant response rating, Canarygrass [5, 15]: 80
- Plant response rating, Canarygrass [5, 16]: 85
- Plant response rating (scale of 0 to 100), Canarygrass ([5]; Preemergence, 31 g ai/ha): 80
- Plant response rating, Canarygrass [5, 17]: 80
- Plant response rating, Canarygrass [5, 18]: 95
- Plant response rating, Canarygrass [5, 19]: 100
- Plant response rating, Canarygrass [5, 20]: 80
- Chamomile plant response rating [6, 14]: 75
- Plant response rating, Chamomile [6, 15]: 100
- Plant response rating, Chamomile [6, 16]: 100
- Plant response rating (scale of 0 to 100), Chamomile ([6]; Preemergence, 31 g ai/ha): 100
- Plant response rating, Chamomile [6, 17]: 100
- Plant response rating, Chamomile [6, 18]: 100
- Plant response rating, Chamomile [6, 19]: 95
- Plant response rating, Chamomile [6, 20]: 95
- Field Violet plant response rating [7, 14]: 65
- Plant response rating, Field Violet [7, 15]: 85
- Plant response rating, Field Violet [7, 16]: 95
- Plant response rating (scale of 0 to 100), Field Violet ([7]; Preemergence, 31 g ai/ha): 90
- Plant response rating, Field Violet [7, 17]: 100
- Plant response rating, Field Violet [7, 18]: 100
- Plant response rating, Field Violet [7, 19]: 100
- Plant response rating, Field Violet [7, 20]: 75
- Foxtail, Green plant response rating [8, 14]: 60
- Plant response rating, Foxtail, Green [8, 15]: 70
- Plant response rating, Foxtail, Green [8, 16]: 75
- Plant response rating (scale of 0 to 100), Foxtail, Green ([8]; Preemergence, 31 g ai/ha): 35
- Plant response rating, Foxtail, Green [8, 17]: 90
- Plant response rating, Foxtail, Green [8, 18]: 95
- Plant response rating, Foxtail, Green [8, 19]: 100
- Plant response rating, Foxtail, Green [8, 20]: 65
- Oat, Wild plant response rating [9, 14]: 75
- Plant response rating, Oat, Wild [9, 15]: 90
- Plant response rating, Oat, Wild [9, 16]: 90
- Plant response rating (scale of 0 to 100), Oat, Wild ([9]; Preemergence, 31 g ai/ha): 85
- Plant response rating, Oat, Wild [9, 17]: 90
- Plant response rating, Oat, Wild [9, 18]: 95
- Plant response rating, Oat, Wild [9, 19]: 100
- Plant response rating, Oat, Wild [9, 20]: 80
- Pigweed plant response rating [10, 14]: 80
- Plant response rating, Pigweed [10, 15]: 95
- Plant response rating, Pigweed [10, 16]: 100
- Plant response rating (scale of 0 to 100), Pigweed ([10]; Preemergence, 31 g ai/ha): 100
- Plant response rating, Pigweed [10, 17]: 100
- Plant response rating, Pigweed [10, 18]: 100
- Plant response rating, Pigweed [10, 19]: 100
- Plant response rating, Pigweed [10, 20]: 100
- Radish, Wild plant response rating [11, 14]: 15
- Plant response rating, Radish, Wild [11, 15]: 65
- Plant response rating, Radish, Wild [11, 16]: 75
- Plant response rating (scale of 0 to 100), Radish, Wild ([11]; Preemergence, 31 g ai/ha): 0
- Plant response rating, Radish, Wild [11, 17]: 0
- Plant response rating, Radish, Wild [11, 18]: 0
- Plant response rating, Radish, Wild [11, 19]: 0
- Plant response rating, Radish, Wild [11, 20]: 35
- Ryegrass, Italian plant response rating [12, 14]: 75
- Plant response rating, Ryegrass, Italian [12, 15]: 85
- Plant response rating, Ryegrass, Italian [12, 16]: 90
- Plant response rating (scale of 0 to 100), Ryegrass, Italian ([12]; Preemergence, 31 g ai/ha): 95
- Plant response rating, Ryegrass, Italian [12, 17]: 100
- Plant response rating, Ryegrass, Italian [12, 18]: 100
- Plant response rating, Ryegrass, Italian [12, 19]: 100
- Plant response rating, Ryegrass, Italian [12, 20]: 85
- Wheat, Spring plant response rating [13, 14]: 0
- Plant response rating, Wheat, Spring [13, 15]: 15
- Plant response rating, Wheat, Spring [13, 16]: 20
- Plant response rating (scale of 0 to 100), Wheat, Spring ([13]; Preemergence, 31 g ai/ha): 0
- Plant response rating, Wheat, Spring [13, 17]: 0
- Plant response rating, Wheat, Spring [13, 18]: 10
- Plant response rating, Wheat, Spring [13, 19]: 25
- Plant response rating, Wheat, Spring [13, 20]: 0
